pKd: −log10 of the molar value.
Tests used:
AML CD34+ cells = assay: Release study of DMAPE in vitro, AML CD34+ cells (UFLC-MS/MS); type: in vitro ADME, human; conditions: 10 μM DMAPE, 24 h
Method: 1 × 10^5 cells (including sorted CD34^+ KG-1a cells and NBM cells) were seeded at 48-well plates (Corning, New York, USA) in the IMDM-based serum-free media for 1 h. The cells were then incubated with 10 μM DMAPE at 37 °C in the 5% CO2 incubator for 0, 12 or 24 h. The culture supernatant was collected by centrifugation at 3000 rpm for 10 min and evaporated to dryness at 30 °C using a CentriVap vacuum centrifugal concentrator. The resulting residue was reconstituted in 100 μL methanol, vortexed and centrifuged at 12000 rpm for 10 min. A 2 μL aliquot of the supernatant was injected for UFLC-MS/MS analysis (UFLC-MS/MS analysis method same as the pharmacokinetic study of DMAPE, see Additional method in Supplementary Materials).

NADPH-reduced TrxR1 = target: T1, NADPH-reduced TrxR1 (Homo sapiens, UniProt Q16881); assay: Bio-layer interferometry (BLI) binding assay, TrxR1
T1 construct: purchased Abcam ab204206
T1 sequence (Q16881 1-499 isoform Q16881-5): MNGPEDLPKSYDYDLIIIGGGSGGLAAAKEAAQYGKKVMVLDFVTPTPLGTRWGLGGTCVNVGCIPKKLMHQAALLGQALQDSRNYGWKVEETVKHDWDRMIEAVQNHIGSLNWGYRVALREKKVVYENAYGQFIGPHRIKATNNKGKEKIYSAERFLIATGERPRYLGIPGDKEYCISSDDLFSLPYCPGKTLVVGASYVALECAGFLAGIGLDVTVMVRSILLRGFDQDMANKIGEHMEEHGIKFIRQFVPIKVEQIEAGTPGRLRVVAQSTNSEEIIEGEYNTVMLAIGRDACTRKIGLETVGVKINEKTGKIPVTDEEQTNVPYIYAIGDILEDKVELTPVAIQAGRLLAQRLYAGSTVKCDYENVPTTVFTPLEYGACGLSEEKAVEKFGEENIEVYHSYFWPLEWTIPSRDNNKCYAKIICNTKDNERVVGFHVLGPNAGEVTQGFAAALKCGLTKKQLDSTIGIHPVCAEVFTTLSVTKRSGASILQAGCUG
Method: (§1) The binding kinetics of PepE or PepA to purified recombinant proteins were determined using BLI on an Octet RED 96 system (ForteBio, Shanghai, China) following the manufacturer's protocol. All interaction analyses were performed at 25 °C in PBS with 0.2% DMSO. Purified recombinant proteins (0.9 μM, the TrxR1 full length and TrxR1 protein fragment were pre-reduced by 400 μM of NADPH before test) were pre-labeled with biotin using […] (Abcam) following the manufacturer's instruction. Loading of the Dip and Read Super Streptavidin (SSA) Biosensors (ForteBio) were conducted by exposing biotinylated proteins to biosensor tips for 2 h. The 96-well microplates used in the Octet were filled with 200 μL sample or buffer per well and agitated at 1000 rpm. The loaded biosensors were washed in buffer for 600 s and transferred to wells containing PepE at concentrations of 0.625, 1.25, 2.5, 5, and 10 μM or PepA at concentrations of 1.25, 2.5, 5, 10 and 20 μM, respectively, in the buffer. […] Reference measurements were conducted using the buffer instead of PepE (or PepA). A parallel set of SA unloaded biosensors was prepared to act as a control. The sample-sensorgrams were corrected by subtracting the double reference curve. Kinetic parameters (Kon and Kdis) and affinity (KD) were determined from a global fit to a 1:1 binding model of the data between proteins and PepE using Octet software (ForteBio).

GPX1 = target: T2, GPX1 (Homo sapiens, UniProt P07203); assay: BLI binding assay, GPX1
T2 construct: purchased Abcam
T2 sequence (P07203 1-203): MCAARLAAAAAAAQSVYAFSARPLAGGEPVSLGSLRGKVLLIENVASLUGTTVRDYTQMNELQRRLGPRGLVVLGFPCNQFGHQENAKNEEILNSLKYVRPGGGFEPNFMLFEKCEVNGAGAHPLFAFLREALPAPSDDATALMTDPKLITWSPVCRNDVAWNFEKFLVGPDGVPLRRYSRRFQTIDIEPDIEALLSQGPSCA
Method: as §1, with “The sample-sensorgrams were corrected by subtracting the double reference curve.” left out

GCLC = target: T3, GCLC (Homo sapiens, UniProt P48506); assay: BLI binding assay, GCLC
T3 construct: purchased Abcam
T3 sequence (P48506 1-637): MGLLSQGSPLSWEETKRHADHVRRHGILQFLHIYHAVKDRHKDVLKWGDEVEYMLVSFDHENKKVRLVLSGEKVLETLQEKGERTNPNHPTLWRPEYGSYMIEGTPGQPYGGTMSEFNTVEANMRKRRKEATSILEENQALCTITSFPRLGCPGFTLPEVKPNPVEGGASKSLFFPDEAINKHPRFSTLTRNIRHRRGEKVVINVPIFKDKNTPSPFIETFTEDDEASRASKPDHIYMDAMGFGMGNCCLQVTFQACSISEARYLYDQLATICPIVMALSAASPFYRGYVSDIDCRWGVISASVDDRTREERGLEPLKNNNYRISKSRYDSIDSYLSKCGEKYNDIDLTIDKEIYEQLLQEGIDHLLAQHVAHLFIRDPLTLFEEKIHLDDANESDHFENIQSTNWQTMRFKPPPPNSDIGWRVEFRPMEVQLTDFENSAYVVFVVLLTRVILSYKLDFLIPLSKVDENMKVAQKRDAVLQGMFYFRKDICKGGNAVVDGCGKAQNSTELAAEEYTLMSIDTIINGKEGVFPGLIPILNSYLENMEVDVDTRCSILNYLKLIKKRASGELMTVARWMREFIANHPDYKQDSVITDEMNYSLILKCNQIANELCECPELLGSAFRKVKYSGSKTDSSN
Method: as §1

SMILES | DMAPE in culture with AML CD34+ cells (AML CD34+ cells) | kon (NADPH-reduced TrxR1) | pKd (NADPH-reduced TrxR1; NADPH-reduced TrxR1 0.9 μM, 25 °C) | pKd (NADPH-reduced TrxR1; Table S3) | koff (NADPH-reduced TrxR1; read-out: Kdis) | pKd (GPX1) | kon (GPX1) | pKd (GCLC) | kon (GCLC) | koff (GCLC; read-out: Kdis)
COc1cc(C(c2cc(OC)c3c(c2)OCO3)[C@@H]2COC(=O)[C@H]2CN(C)CCO)cc2c1OCO2 [DMAPE, (2S,3S)-6-Methyl (hydroxyethyl) amino-2,6-dihydropeperomin E] | could not be detected |  |  |  |  |  |  |  |  | 
C=C1C(=O)OC[C@H]1C(c1cc(OC)c2c(c1)OCO2)c1cc(OC)c2c(c1)OCO2 [PepE, Peperomin E] |  | 12400 M⁻¹ s⁻¹ | 6.47 | 6.47 | 0.00423 s⁻¹ | 3.27 | 6400 M⁻¹ s⁻¹ | 2.87 | 465 M⁻¹ s⁻¹ | 0.625 s⁻¹
